These are literature values, as cited in PMC7898221 (Drug Design, Development and Therapy, 2021).

Usually Tmax stands for the time at which the peak concentration occurs. With `CC(C)c1nc(N(C)S(C)(=O)=O)nc(-c2ccc(F)cc2)c1/C=C/[C@@H](O)C[C@@H](O)CC(=O)O` [Rosuvastatin], the “Terminal t1/2” value was 12.3 ± 5.8 h. In addition, the Tmax (after dosing) was 1.0 to 5.0 h.
For the compound `N[C@@H](CC(=O)N1CCc2c(nc(C(F)(F)F)nc2C(F)(F)F)C1)CN1CC(F)(F)CCC1=O` [Gemigliptin], the “Time to maximum plasma concentration (Tmax)” value (after dosing) is 0.5 to 3.0 h. The “Fraction metabolized by CYP3A4 into LC15-0636” value in the series with CYP3A4 is on record as ~ 10%.
